Measurements from paper PMC11189555, “Aryl amino acetamides prevent Plasmodium falciparum ring development via targeting the lipid-transfer protein PfSTART1” (Nature Communications, 2024).
Several values for one entry are separate records, joined by “and”; a condition that tells them apart may be missing. Equal entries are not always repeated. Where two headings read alike, the source gives them in different places.

What was measured:
CR-WT parasites = test: Growth inhibition assay (72 h, LDH activity); assay type: cell-based, Plasmodium falciparum; conditions: for EC50: n = 3
Procedure: Parasite growth assays with inhibitory compounds were performed as per[11] and are fully described in the Supplementary Information.
Molecular biology and transfection of P. falciparum: CRISPR method.
The full 5’ homology region of pfstart1 (either WT, N309K or N330K) was amplified from pPfSTART1-HA-2A-Neo-glmS with the same 5’ BglII primer and a new 3’ primer that replaced with PstI with SpeI and introduced a stop codon. The PCR product was then digested with BglII and SpeI and inserted into similarly digested p1.2 parasite vector2. The p1.2 vector had previously been inserted with a homology region amplified from the 3’ end of the pfstart1 gene (3’HB) to form a second homology block for double recombination. The primers used to amplify 3’HB are listed primers listed in […]
60 μg of p1.2-PfSTART1(WT/N309K/N330K) plasmid was linearised with KasI, precipitated in 3 M sodium acetate and ethanol (70% final concentration) overnight at -20°C. The DNA pellet was washed in cold 70% ethanol and resuspended in cytomix 3.
50 μ M of crRNA ( Table S 2) and 50 μM of tracRNA (Integrated DNA Technologies) were allowed to form a duplex (5 min at 95°C), and Cas9 enzyme (Integrated DNA Technologies) was added, and incubated for 20 min at room temperature 4. This crRNA -tracRNA -Cas9 mix was added to each DNA preparation and transfected to 3D7 ring parasites using the Bio -Rad Gene Pulser at 310 V and 950 μF.
Parasites containing the transfected DNA were selected using 2.5 nM WR99210 (Jacobus). Parasites lines were cloned using limiting dilution. Correct integration was tested by PCR (using primer START_5’UTR.F and START_Int.R1 , Table S 2), and sequencing was done using the primers START_3F and START_Int.R2 (Table S 2).
Growth inhibition assays. Synchronised ring-stage parasites (0.3-0.6% parasitemia, 2% haematocrit) were grown for 72 h in a serial-dilution of the compound under […]
(§1) and compound 4. Note that M-833 was first purchased from MolPort (MolPort -002-267-916) then made in-house at WEHI: the differences observed in EC50s across experiments are attributed to the different batches of M -833. For some experiments, 0, 0.25 or 2.5 mM of glucosamine (GlcN) was also added. Experiments were set up in technical duplicates or triplicates. Following a freeze -thaw cycle, lactate dehydrogenase (LDH) activity was assessed as an indicator of parasite growt h 5. 30 μL of parasite culture was incubated for 30 min in the dark with 75 μL Malstat mixture (0.1 M Tris pH 9.0, 20 g/L lactic acid, pH 7.5, 0.2% Triton-X100, 0.5 g/L acetylpyridine adenine dinucleotide (APAD, Sigma), 200 μg/mL nitroblue tetrazolium (NBT; Sigma), 1 μg/mL phenozine ethosulfate (PES; Sigma)). Absorbance was then measured at 650 nm, transformed using the formula below, plotted against the logarithm of the concentrations, and a non-linear regression (log(inhibitor) vs. response, variable slope) was calculated using GraphPad Prism to assess the half-inhibitory […]
(§2) Growth inhibition % = (1 − average(sample)− average(uRBC)) ∗ 100 […]
(§3) The DMSO samples were also used to assess growth of parasite in the presence of 0.25 and 2.5 mM GlcN (normalised by DMSO in 0 mM GlcN). […]

[1] = tested on: M-833 resistant parasite populations (PopC, PopD, PopE); test: Growth inhibition of M-833 resistant populations (LDH); assay type: cell-based, Plasmodium falciparum
Procedure: After three cycles of drug treatment, three parasite populations were identified as less susceptible to the compound and their growth in serially diluted M-833 after 72 h was measured by lactate dehydrogenase (LDH) activity assays. […] The two most resistant populations (PopD and PopE) were further cloned out by limiting dilution. […] To identify the target of M-833, genomic DNA was extracted from the clonal lines of PopD and PopE and subjected to whole genome sequencing using MinION technology and compared to clonal 3D7 parental parasites. This identified 14 non-synonymous single nucleotide polymorphisms (SNP) across nine different genes when compared to the 3D7 parental strain (Supplementary Data 1). The two genes that had SNPs present across all resistant clones were the P. falciparum liver stage antigen 1 gene (PF3D7_1036400) and P. falciparum stAR-related lipid transfer protein (PF3D7_0104200, PFA0210c; pfstart1). The former is not expressed in the blood stage[19]–[21] and comprises a large central repeat region which is problematic for variant calling. […] Collectively, all the identified mutations (N309K, I224F, N330K) were found within the central conserved START domain and predicted to face the lipid-binding pocket (Fig. 1C).
The drug was then removed, and parasites were allowed to recover. Another cycle of drug treatment (3 μM M-833) was then resumed. The resistant lines were cloned out by limiting dilution (diluting the culture into a 96-well plate to achieve an average of ~0.3 parasites per well), prior to growth inhibition assays and genomic DNA (gDNA) extraction (DNeasy Blood and Tissue kit (Qiagen)[18].
Parasite growth assays with inhibitory compounds were performed as per[11] and are fully described in the Supplementary Information. […]
as §1, §2, §3

Cc1cc(Cl)c(S(=O)(=O)N2CCCC2)cc1OCC(=O)NC1CCCCC1 [M-833]
Growth inhibition assay, NORMALISED (CR-WT parasites; CR-WT, 0 mM GlcN, conc 41.1523 nM): 25.7439 and 21.0208
Growth inhibition assay, NORMALISED (CR-WT parasites; CR-WT, 0 mM GlcN, conc 123.457 nM): 61.3173 and 56.525
Growth inhibition assay, NORMALISED (CR-WT parasites; CR-WT, 0 mM GlcN, conc 370.37 nM): 82.8843
Growth inhibition assay, NORMALISED (CR-WT parasites; CR-WT, 0 mM GlcN, conc 1111.11 nM): 89.7059
Growth inhibition assay, NORMALISED (CR-WT parasites; CR-WT, 0 mM GlcN, conc 3333.33 nM): 91.3866
Growth inhibition assay, NORMALISED (CR-WT parasites; CR-WT, 0 mM GlcN, conc 10000 nM): 91.9797
NORMALISED (growth inhibition, LDH absorbance vs DMSO and uRBC) (CR-WT parasites; CR-WT, 0.25 mM GlcN, M833 dilution point 1 of 10 (starting concentration 10 uM)): 91.6378 and 97.2065 and 92.208
NORMALISED (growth inhibition, LDH absorbance vs DMSO and uRBC) (CR-WT parasites; CR-WT, 0.25 mM GlcN, M833 dilution point 2 of 10 from 10 uM start): 88.8272 and 91.5474 and 95.4251
NORMALISED (growth inhibition, LDH absorbance vs DMSO and uRBC) (CR-WT parasites; CR-WT, 0.25 mM GlcN, M833 dilution point 3 of 10 from 10 uM start): 89.2783 and 89.1988 and 95.5364
NORMALISED (growth inhibition, LDH absorbance vs DMSO and uRBC) (CR-WT parasites; CR-WT, 0.25 mM GlcN, M833 dilution point 4 of 10 from 10 uM start): 88.272 and 87.9755 and 93.8563
NORMALISED (growth inhibition, LDH absorbance vs DMSO and uRBC) (CR-WT parasites; CR-WT, 0.25 mM GlcN, M833 dilution point 5 of 10 from 10 uM start): 75.3643 and 67.6575 and 81.1437
NORMALISED (growth inhibition, LDH absorbance vs DMSO and uRBC) (CR-WT parasites; CR-WT, 0.25 mM GlcN, M833 dilution point 6 of 10 from 10 uM start): 45.0382 and 30.6544 and 52.9049
NORMALISED (growth inhibition, LDH absorbance vs DMSO and uRBC) (CR-WT parasites; CR-WT, 2.5 mM GlcN, M833 dilution point 1 of 10 (starting concentration 10 uM)): 89.8305 and 92.5684 and 90.1213
NORMALISED (growth inhibition, LDH absorbance vs DMSO and uRBC) (CR-WT parasites; CR-WT, 2.5 mM GlcN, M833 dilution point 2 of 10 from 10 uM start): 86.1896 and 88.6745 and 91.3765
NORMALISED (growth inhibition, LDH absorbance vs DMSO and uRBC) (CR-WT parasites; CR-WT, 2.5 mM GlcN, M833 dilution point 3 of 10 from 10 uM start): 89.5794 and 86.621 and 91.7037
NORMALISED (growth inhibition, LDH absorbance vs DMSO and uRBC) (CR-WT parasites; CR-WT, 2.5 mM GlcN, M833 dilution point 4 of 10 from 10 uM start): 86.2524 and 82.3118 and 91.2012
NORMALISED (growth inhibition, LDH absorbance vs DMSO and uRBC) (CR-WT parasites; CR-WT, 2.5 mM GlcN, M833 dilution point 5 of 10 from 10 uM start): 84.1808 and 81.8139 and 88.9226
NORMALISED (growth inhibition, LDH absorbance vs DMSO and uRBC) (CR-WT parasites; CR-WT, 2.5 mM GlcN, M833 dilution point 6 of 10 from 10 uM start): 79.5355 and 74.3155 and 81.4326
NORMALISED (growth inhibition, LDH absorbance vs DMSO and uRBC) (CR-WT parasites; CR-WT, 2.5 mM GlcN, M833 dilution point 7 of 10 from 10 uM start): 64.0929 and 56.4406 and 58.0509
NORMALISED (growth inhibition, LDH absorbance vs DMSO and uRBC) (CR-WT parasites; CR-WT, 2.5 mM GlcN, M833 dilution point 8 of 10 from 10 uM start): 44.6955 and 44.5084 and 37.5789
NORMALISED (growth inhibition, LDH absorbance vs DMSO and uRBC) (CR-WT parasites; CR-WT, 2.5 mM GlcN, M833 dilution point 9 of 10 from 10 uM start): 25.0175 and 29.9435 and 28.2047
NORMALISED (growth inhibition, LDH absorbance vs DMSO and uRBC) (CR-WT parasites; CR-WT, 2.5 mM GlcN, M833 dilution point 10 of 10 from 10 uM start): 14.8750 and 11.4878 and 17.8749
EC50 (CR-WT parasites; Plasmodium falciparum, 72 h, Fig 2D, CR-WT, 72 h, read-out: EC50 (95% confidence interval)): 51.2 nM
inhibition at 0.37037 µM (CR-WT parasites; Plasmodium falciparum, CR-WT, 0 mM GlcN, conc 370.37 nM, read-out: Growth inhibition assay, NORMALISED): 88.3%
inhibition at 1.11111 µM (CR-WT parasites; Plasmodium falciparum, CR-WT, 0 mM GlcN, conc 1111.11 nM, read-out: Growth inhibition assay, NORMALISED): 91.9%
inhibition at 3.33333 µM (CR-WT parasites; Plasmodium falciparum, CR-WT, 0 mM GlcN, conc 3333.33 nM, read-out: Growth inhibition assay, NORMALISED): 91.6%
inhibition at 10 µM (CR-WT parasites; Plasmodium falciparum, CR-WT, 0 mM GlcN, conc 10000 nM, read-out: Growth inhibition assay, NORMALISED): 93.5%
EC50 (CR-WT parasites; Plasmodium falciparum, read-out: EC50 M-833 (95% confidence interval), Fig 3F, CR-WT, 0.25 mM GlcN): 39.6 nM
EC50 (CR-WT parasites; Plasmodium falciparum, read-out: EC50 M-833 (95% confidence interval), Fig 3F, CR-WT, 2.5 mM GlcN): 6.58 nM
fold reduction of EC50 on addition of 2.5 mM GlcN (CR-WT parasites; {}): 7.8 fold
Growth (Abs) Normalised to DMSO ([1]; Population C, M-833 0.0390625 uM): 99.9117
Growth (Abs) Normalised to DMSO ([1]; Population C, M-833 0.078125 uM): 102.105
Growth (Abs) Normalised to DMSO ([1]; Population C, M-833 0.15625 uM): 99.9558
Growth (Abs) Normalised to DMSO ([1]; Population C, M-833 0.3125 uM): 98.7636
Growth (Abs) Normalised to DMSO ([1]; Population C, M-833 0.625 uM): 92.6626
Growth (Abs) Normalised to DMSO ([1]; Population C, M-833 1.25 uM): 74.9632
Growth (Abs) Normalised to DMSO ([1]; Population C, M-833 2.5 uM): 42.7878
Growth (Abs) Normalised to DMSO ([1]; Population C, M-833 5 uM): 8.5443
Growth (Abs) Normalised to DMSO ([1]; Population C, M-833 10 uM): 1.435
Growth (Abs) Normalised to DMSO ([1]; Population D, M-833 0.0390625 uM): 100.282
Growth (Abs) Normalised to DMSO ([1]; Population D, M-833 0.078125 uM): 101.574
Growth (Abs) Normalised to DMSO ([1]; Population D, M-833 0.15625 uM): 100.622
Growth (Abs) Normalised to DMSO ([1]; Population D, M-833 0.3125 uM): 100.758
Growth (Abs) Normalised to DMSO ([1]; Population D, M-833 0.625 uM): 96.1318
Growth (Abs) Normalised to DMSO ([1]; Population D, M-833 1.25 uM): 94.9752
Growth (Abs) Normalised to DMSO ([1]; Population D, M-833 2.5 uM): 84.3814
Growth (Abs) Normalised to DMSO ([1]; Population D, M-833 5 uM): 63.806
Growth (Abs) Normalised to DMSO ([1]; Population D, M-833 10 uM): 31.8884
Growth (Abs) Normalised to DMSO ([1]; Population E, M-833 0.0390625 uM): 101.958
Growth (Abs) Normalised to DMSO ([1]; Population E, M-833 0.078125 uM): 104.075
Growth (Abs) Normalised to DMSO ([1]; Population E, M-833 0.15625 uM): 104.451
Growth (Abs) Normalised to DMSO ([1]; Population E, M-833 0.3125 uM): 103.313
Growth (Abs) Normalised to DMSO ([1]; Population E, M-833 0.625 uM): 104.846
Growth (Abs) Normalised to DMSO ([1]; Population E, M-833 1.25 uM): 106.755
Growth (Abs) Normalised to DMSO ([1]; Population E, M-833 2.5 uM): 98.4077
Growth (Abs) Normalised to DMSO ([1]; Population E, M-833 5 uM): 90.3966
Growth (Abs) Normalised to DMSO ([1]; Population E, M-833 10 uM): 68.0744
increase in EC50 compared to 3D7 parasites ([1]; cloned PopD and PopE lines, Fig 1B): 17 fold
